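Five compound concentrations were applied to cells in 96-well plates for 48 hours; endpoints were derived by simple linear interpolation of the resulting dose-response curve. TGI: total growth inhibition.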
Key:
Assay in all cases: NCI anticancer screen, dose series, 48 h
CCRF-CEM leukemia = test system: CCRF-CEM leukemia
T-47D breast = test system: T-47D breast
NCI-H23 lung = test system: NCI-H23 lung
HL-60(TB) leukemia = test system: HL-60(TB) leukemia
MDA-N = test system: MDA-N
KM12 colon = test system: KM12 colon
MDA-MB-231 breast = test system: MDA-MB-231 breast
SF-268 CNS = test system: SF-268 CNS
HCT-15 colon = test system: HCT-15 colon
786-0 renal = test system: 786-0 renal
HOP-92 NSCLC = test system: HOP-92 NSCLC
DU-145 prostate = test system: DU-145 prostate
MDA-MB-435 = test system: MDA-MB-435
A549 NSCLC = test system: A549 NSCLC
PC-3 prostate = test system: PC-3 prostate
U251 CNS = test system: U251 CNS
HCT-116 colon = test system: HCT-116 colon
COLO 205 colon = test system: COLO 205 colon
SNB-19 CNS = test system: SNB-19 CNS
ACHN renal = test system: ACHN renal
UACC-257 melanoma = test system: UACC-257 melanoma
NCI-H522 lung = test system: NCI-H522 lung
SK-OV-3 ovarian = test system: SK-OV-3 ovarian
K-562 leukemia = test system: K-562 leukemia
IGROV1 ovarian = test system: IGROV1 ovarian
EKVX NSCLC = test system: EKVX NSCLC
SF-539 CNS = test system: SF-539 CNS
MALME-3M melanoma = test system: MALME-3M melanoma
RXF 393 renal = test system: RXF 393 renal
NCI/ADR-RES ovarian = test system: NCI/ADR-RES ovarian
RPMI-8226 leukemia = test system: RPMI-8226 leukemia
OVCAR-5 ovarian = test system: OVCAR-5 ovarian
UO-31 renal = test system: UO-31 renal
HS 578T breast = test system: HS 578T breast
TK-10 renal = test system: TK-10 renal
SK-MEL-2 melanoma = test system: SK-MEL-2 melanoma
NCI-H226 lung = test system: NCI-H226 lung
SK-MEL-28 melanoma = test system: SK-MEL-28 melanoma
LOX IMVI melanoma = test system: LOX IMVI melanoma
SR leukemia = test system: SR leukemia
HT29 colon = test system: HT29 colon
SF-295 CNS = test system: SF-295 CNS
HCC-2998 colon = test system: HCC-2998 colon
MOLT-4 leukemia = test system: MOLT-4 leukemia
SNB-75 CNS = test system: SNB-75 CNS
NCI-H460 lung = test system: NCI-H460 lung
CAKI-1 renal = test system: CAKI-1 renal
SK-MEL-5 melanoma = test system: SK-MEL-5 melanoma
OVCAR-8 ovarian = test system: OVCAR-8 ovarian
SW-620 colon = test system: SW-620 colon
HOP-62 NSCLC = test system: HOP-62 NSCLC
UACC-62 melanoma = test system: UACC-62 melanoma
SN12C renal = test system: SN12C renal
A498 renal = test system: A498 renal
OVCAR-4 ovarian = test system: OVCAR-4 ovarian
MCF7 breast = test system: MCF7 breast
M14 melanoma = test system: M14 melanoma

COC(=O)c1sc2nc(Nc3ccccc3)c(=Nc3ccccc3)sc2c1C
TGI (CCRF-CEM leukemia): > 100 µM | TGI (T-47D breast): > 100 µM | TGI (NCI-H23 lung): > 100 µM | TGI (HL-60(TB) leukemia): > 100 µM | TGI (MDA-N): > 100 µM | TGI (KM12 colon): > 100 µM | TGI (MDA-MB-231 breast): > 100 µM | TGI (SF-268 CNS): > 100 µM | TGI (HCT-15 colon): > 100 µM | TGI (786-0 renal): > 100 µM | TGI (HOP-92 NSCLC): 92 µM | TGI (DU-145 prostate): > 100 µM | TGI (MDA-MB-435): > 100 µM | TGI (A549 NSCLC): > 100 µM | TGI (PC-3 prostate): > 100 µM | TGI (U251 CNS): > 100 µM | TGI (HCT-116 colon): > 100 µM | TGI (COLO 205 colon): > 100 µM | TGI (SNB-19 CNS): > 100 µM | TGI (ACHN renal): > 100 µM | TGI (UACC-257 melanoma): > 100 µM | TGI (NCI-H522 lung): > 100 µM | TGI (SK-OV-3 ovarian): > 100 µM | TGI (K-562 leukemia): > 100 µM | TGI (IGROV1 ovarian): > 100 µM | TGI (EKVX NSCLC): > 100 µM | TGI (SF-539 CNS): > 100 µM | TGI (MALME-3M melanoma): > 100 µM | TGI (RXF 393 renal): 80.5 µM | TGI (NCI/ADR-RES ovarian): > 100 µM | TGI (RPMI-8226 leukemia): > 100 µM | TGI (OVCAR-5 ovarian): > 100 µM | TGI (UO-31 renal): > 100 µM | TGI (HS 578T breast): > 100 µM | TGI (TK-10 renal): > 100 µM | TGI (SK-MEL-2 melanoma): > 100 µM | TGI (NCI-H226 lung): > 100 µM | TGI (SK-MEL-28 melanoma): > 100 µM | TGI (LOX IMVI melanoma): > 100 µM | TGI (SR leukemia): > 100 µM | TGI (HT29 colon): > 100 µM | TGI (SF-295 CNS): > 100 µM | TGI (HCC-2998 colon): > 100 µM | TGI (MOLT-4 leukemia): > 100 µM | TGI (SNB-75 CNS): > 100 µM | TGI (NCI-H460 lung): > 100 µM | TGI (CAKI-1 renal): > 100 µM | TGI (SK-MEL-5 melanoma): > 100 µM | TGI (OVCAR-8 ovarian): > 100 µM | TGI (SW-620 colon): > 100 µM | TGI (HOP-62 NSCLC): > 100 µM | TGI (UACC-62 melanoma): > 100 µM | TGI (SN12C renal): > 100 µM | TGI (A498 renal): > 100 µM | TGI (OVCAR-4 ovarian): > 100 µM

CN(C)N1C(=C(C#N)C#N)C(c2ccccc2)CC1C#N (centres undefined)
TGI (CCRF-CEM leukemia): > 100 µM | TGI (T-47D breast): > 100 µM | TGI (NCI-H23 lung): > 100 µM | TGI (HL-60(TB) leukemia): > 100 µM | TGI (MDA-N): > 100 µM | TGI (KM12 colon): > 100 µM | TGI (MDA-MB-231 breast): > 100 µM | TGI (SF-268 CNS): > 100 µM | TGI (HCT-15 colon): > 100 µM | TGI (786-0 renal): > 100 µM | TGI (HOP-92 NSCLC): > 100 µM | TGI (DU-145 prostate): > 100 µM | TGI (MDA-MB-435): > 100 µM | TGI (A549 NSCLC): > 100 µM | TGI (PC-3 prostate): > 100 µM | TGI (U251 CNS): > 100 µM | TGI (HCT-116 colon): > 100 µM | TGI (COLO 205 colon): > 100 µM | TGI (SNB-19 CNS): > 100 µM | TGI (ACHN renal): > 100 µM | TGI (UACC-257 melanoma): > 100 µM | TGI (NCI-H522 lung): > 100 µM | TGI (SK-OV-3 ovarian): > 100 µM | TGI (K-562 leukemia): > 100 µM | TGI (IGROV1 ovarian): > 100 µM | TGI (EKVX NSCLC): > 100 µM | TGI (SF-539 CNS): > 100 µM | TGI (MALME-3M melanoma): > 100 µM | TGI (RXF 393 renal): > 100 µM | TGI (NCI/ADR-RES ovarian): > 100 µM | TGI (RPMI-8226 leukemia): > 100 µM | TGI (OVCAR-5 ovarian): > 100 µM | TGI (UO-31 renal): > 100 µM | TGI (HS 578T breast): > 100 µM | TGI (TK-10 renal): > 100 µM | TGI (SK-MEL-2 melanoma): > 100 µM | TGI (NCI-H226 lung): > 100 µM | TGI (SK-MEL-28 melanoma): > 100 µM | TGI (LOX IMVI melanoma): > 100 µM | TGI (HT29 colon): > 100 µM | TGI (SF-295 CNS): > 100 µM | TGI (HCC-2998 colon): > 100 µM | TGI (MOLT-4 leukemia): > 100 µM | TGI (SNB-75 CNS): > 100 µM | TGI (CAKI-1 renal): > 100 µM | TGI (SK-MEL-5 melanoma): > 100 µM | TGI (OVCAR-8 ovarian): > 100 µM | TGI (MCF7 breast): > 100 µM | TGI (M14 melanoma): > 100 µM | TGI (SW-620 colon): > 100 µM | TGI (HOP-62 NSCLC): > 100 µM | TGI (UACC-62 melanoma): > 100 µM | TGI (SN12C renal): > 100 µM | TGI (A498 renal): > 100 µM

— PubChem BioAssay (NCI)
